# Measured values: patent US20230135093A1, “TRIAZOLYL DERIVATIVES AS GABA A ALPHA5 PAM” (Hoffmann-La Roche Inc., priority 2020, published 2023)
# Assays:
# h-GABA-A α5β3γ2 [1] = molecular target: T1, h-GABA-A α5β3γ2 (Homo sapiens, UniProt P18507+P31644); assay: [3H]flumazenil competition binding assay on membranes of HEK293 cells expressing GABAA receptors
# T1 construct: expressed in transfected cells; host or cells: Xenopus laevis oocytes, micro-injected with subunit RNA
# Method in brief: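 Membranes from HEK293 cells transiently expressing human α5β3γ2 were incubated 1 h at 4 °C in Krebs-tris pH 7.5 with 0.5 nM [3H]flumazenil and test compound. Nonspecific binding was set with 10^−5 M diazepam. Bound radioactivity was filtered and counted. Ki is the mean of two determinations.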
# h-GABA-A α5β3γ2 [2] = molecular target: T1, h-GABA-A α5β3γ2; assay: Two-electrode voltage clamp electrophysiology in Xenopus oocytes expressing GABAA receptors (modulation of GABA EC20 current); type: cell-based
# Method in brief: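 Oocytes injected with α5β3γ2 subunit RNA, recorded 3-5 days later by two-electrode clamp at −80 mV, room temperature, pH 7.4. The compound, at ~30-fold its Ki, was co-applied during a second GABA EC20 pulse. Efficacy was the extremum of the point-by-point second/first current ratio, given as % modulation (100×(fold−1)); n≥3 oocytes.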
# [3] = Table 1, displacement of [3H]-Flumazenil (0.5 nM), HEK293 cells expressing human receptors, means of two determinations
# [4] = Table 1, % modulation of GABA EC20 = 100*(Fold increase-1)
# [5] = Table 1, Xenopus oocytes, GABA EC20, test compound at approximatively 30 fold its Ki
# [6] = Table 2, reference compounds, displacement of [3H]-Flumazenil
# [7] = Table 2, reference compounds, % modulation of GABA EC20
# [8] = Table 2, reference compounds, GABAA α5β3γ2 overexpressing oocytes, GABA EC20
Compound,Ki (h-GABA-A α5β3γ2 [1]; [3]) [nM],Efficacy (GABA) % (h-GABA-A α5β3γ2 [2]; [4]) [%],Fold increase h-GABA-A α5β3γ2 oocyte (h-GABA-A α5β3γ2 [2]; [5]),Ki (h-GABA-A α5β3γ2 [1]; [6]) [nM],Efficacy (GABA) % (h-GABA-A α5β3γ2 [2]; [7]) [%],Fold increase h-GABA-A α5β3γ2 oocyte (h-GABA-A α5β3γ2 [2]; [8])
"Cn1nnc(-c2ncc(C(F)(F)F)cn2)c1Cn1ncc(N2CC(OCC(F)(F)F)C2)cc1=O [Example 120, 2-[[3-methyl-5-[5-(trifluoromethyl)pyrimidin-2-yl]triazol-4-yl]methyl]-5-[3-(2,2,2-trifluoro-ethoxy)azetidin-1-yl]pyridazin-3-one]",27,78,1.78,–,–,–
"Cn1nnc(-c2ncc(C(F)(F)F)cn2)c1Cn1ncc(N2CC(OC(F)F)C2)cc1=O [Example 121, 5-[3-(difluoromethoxy)azetidin-1-yl]-2-[[3-methyl-5-[5-(trifluoromethyl)pyrimidin-2-yl]triazol-4-yl]methyl]pyridazin-3-one]",24.8,89,1.89,–,–,–
"CCn1nnc(-c2ccc(Cl)cc2F)c1Cn1ncc(N2CC3(CC[C@@H](C)CO3)C2)cc1=O [Example 122, (R)-2-((4-(4-chloro-2-fluorophenyl)-1-ethyl-1H-1,2,3-triazol-5-yl)methyl)-5-(7-methyl-5-oxa-2-azaspiro[3.5]nonan-2-yl)pyridazin-3(2H)-one]",55.5,141,2.41,–,–,–
"COc1ncc(-c2cnn(Cc3c(-c4ccc(C(F)(F)F)nn4)nnn3C)c(=O)c2)cc1Cl [Example 123, 5-(5-chloro-6-methoxypyridin-3-yl)-2-((1-methyl-4-(6-(trifluoro-methyl)pyridazin-3-yl)-1H-1,2,3-triazol-5-yl)methyl)pyridazin-3(2H)-one]",7.6,148,2.48,–,–,–
"CCn1nnc(-c2ccc(Cl)cc2F)c1Cn1ncc(N2CC3(CC[C@H](F)CO3)C2)cc1=O [Example 124, (S)-2-((4-(4-chloro-2-fluorophenyl)-1-ethyl-1H-1,2,3-triazol-5-yl)methyl)-5-(7-fluoro-5-oxa-2-azaspiro[3.5]nonan-2-yl)pyridazin-3(2H)-one]",10.2,105,2.05,–,–,–

# More lines, now with the values ahead:
Ki (h-GABA-A α5β3γ2 [1]; [3]) [nM],Efficacy (GABA) % (h-GABA-A α5β3γ2 [2]; [4]) [%],Fold increase h-GABA-A α5β3γ2 oocyte (h-GABA-A α5β3γ2 [2]; [5]),Ki (h-GABA-A α5β3γ2 [1]; [6]) [nM],Efficacy (GABA) % (h-GABA-A α5β3γ2 [2]; [7]) [%],Fold increase h-GABA-A α5β3γ2 oocyte (h-GABA-A α5β3γ2 [2]; [8]),Compound
25.3,69,1.69,–,–,–,"CCn1nnc(-c2ccc(Cl)cc2F)c1Cn1ncc(N2CC3(CC[C@@H](F)CO3)C2)cc1=O [Example 125, (R)-2-((4-(4-chloro-2-fluorophenyl)-1-ethyl-1H-1,2,3-triazol-5-yl)methyl)-5-(7-fluoro-5-oxa-2-azaspiro[3.5]nonan-2-yl)pyridazin-3(2H)-one]"
17.5,61,1.61,–,–,–,"Cn1nnc(-c2ccc(Cl)cc2F)c1Cn1ncc(N2CC3(CC[C@H](F)CO3)C2)cc1=O [Example 126, (S)-2-((4-(4-chloro-2-fluorophenyl)-1-methyl-1H-1,2,3-triazol-5-yl)methyl)-5-(7-fluoro-5-oxa-2-azaspiro[3.5]nonan-2-yl)pyridazin-3(2H)-one]"
–,–,–,58.4,−28,0.72,"Cn1nnc(-c2ccccc2F)c1COc1ccc(-n2cnc(C(F)F)c2)nn1 [RO-007, reference compound]"
–,–,–,53.2,−38,0.62,"Cn1nnc(-c2ccc(F)cc2)c1COc1ccc(C(=O)NN2CCOCC2)nn1 [RO-045, reference compound]"
–,–,–,33.4,−15,0.85,"Cn1nnc(-c2ccc(F)cn2)c1COc1ccc(C(=O)NN2CCOCC2)nn1 [RO-052, reference compound]"
